Data published in ChEMBL document CHEMBL1201862, “PubChem BioAssay data set” (2004).
Activity calls are given as the source filed them.

Key:
[1] = inhibitors of intracellular T. cruzi replication, confirmation, NIH3T3 host cells, beta-gal luminescence (AID 2044); type: functional, cell-based;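 further: intracellular parasites grown in NIH/3T3 mouse fibroblasts as host cells; luminescent beta-galactosidase reporter signal from transgenic T. cruzi replicating inside host cells; inhibitors lower the luminescence signal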
cells [2] = type: functional, cell-based
[3] = AlphaScreen signal interference compounds, dose response, artefact control for ARNT-TACC3 interaction inhibitor project, biochemical, luminescence, cherry-pick (AID 651705); type: functional;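 further: AlphaScreen bead proximity signal that flags compounds interfering with the detection technology; potency reflects signal decrease which marks the compound as an assay artifact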
H9c2 = assay: cells; type: functional, cell-based; details: Rattus norvegicus, H9c2, Myocardium;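 further: confirmatory concentration-response retest of ultra-high-throughput screening hits for modulation of myocardial damage; cell death induced by hydrogen peroxide oxidative stress; compound pretreatment for 60 min then peroxide exposure for 2 h; potency is for protecting the cells against peroxide damage rather than for killing them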
cells [4] = type: functional, cell-based; remark: listed apart in the source
[5] = cytotoxicity toward NIH3T3 fibroblasts, dose response, counter-screen, cell-based, ATP luminescence, mouse fibroblasts (AID 2010); type: functional;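 further: cells exposed to compound for about 90 hours before reading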
[6] = molecular target: T1, Endoribonuclease toxin MazF (Escherichia coli K-12, UniProt P0AE70); assay: MazF toxin RNase activators, dose response, biochemical, fluorescence, single-stranded RNA substrate, uHTS hits (AID 588481); type: functional
T1 sequence (P0AE70 whole entry): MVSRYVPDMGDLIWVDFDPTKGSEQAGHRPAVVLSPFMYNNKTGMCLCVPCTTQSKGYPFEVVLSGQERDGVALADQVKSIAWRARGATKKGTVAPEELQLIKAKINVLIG

cells [7] = type: functional
[8] = molecular target: T1, Endoribonuclease toxin MazF; assay: fluorescent RNA oligo signal without MazF, dose response, counter-screen for MazEF activator project, biochemical, fluorescence, single-stranded RNase substrate (AID 588502); type: functional
[9] = Luminescence Cell-Based Dose Retest to Confirm Inhibitors of Cancer Stem Cells. [Related pubchem assays (depositor defined):AID2717, AID2721]; type: functional; details: Homo sapiens
[10] = molecular target: 72 kDa type IV collagenase (Homo sapiens, UniProt P08253); assay: Dose Response validation of uHTS RPN11 inhibitor hits using a MMP-2 Fluorescence assay.; type: functional
72 kDa type IV collagenase, sequence (P08253 whole entry): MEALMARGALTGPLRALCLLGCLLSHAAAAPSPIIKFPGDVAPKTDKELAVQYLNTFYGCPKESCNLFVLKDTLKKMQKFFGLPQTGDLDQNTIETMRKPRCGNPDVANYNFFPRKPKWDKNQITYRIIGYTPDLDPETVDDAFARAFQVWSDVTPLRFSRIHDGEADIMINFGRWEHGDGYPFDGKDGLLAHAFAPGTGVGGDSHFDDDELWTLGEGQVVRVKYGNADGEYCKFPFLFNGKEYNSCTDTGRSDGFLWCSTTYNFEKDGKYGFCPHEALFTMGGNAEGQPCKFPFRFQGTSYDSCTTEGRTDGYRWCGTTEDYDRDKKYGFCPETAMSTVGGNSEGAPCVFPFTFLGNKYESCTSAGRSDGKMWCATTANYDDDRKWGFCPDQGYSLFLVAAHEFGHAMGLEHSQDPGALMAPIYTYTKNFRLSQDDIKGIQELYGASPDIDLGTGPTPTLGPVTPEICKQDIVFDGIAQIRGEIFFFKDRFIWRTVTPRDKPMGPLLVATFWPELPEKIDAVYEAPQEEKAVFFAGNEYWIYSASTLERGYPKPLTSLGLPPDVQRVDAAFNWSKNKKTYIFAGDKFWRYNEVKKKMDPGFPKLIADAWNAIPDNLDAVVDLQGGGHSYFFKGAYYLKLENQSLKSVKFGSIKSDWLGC

Prothrombin = Prothrombin (Bos taurus, UniProt P00735); assay: thrombin inhibition, dose response, biochemical, fluorescence polarization, uHTS hits (AID 602369); type: functional
[11] = molecular target: 26S proteasome non-ATPase regulatory subunit 14 (Homo sapiens, UniProt O00487); assay: inhibition of proteasome subunit RPN11 – biochemical, fluorescence polarization, uHTS hits, confirmation (AID 602368); type: functional
26S proteasome non-ATPase regulatory subunit 14, sequence (O00487 whole entry): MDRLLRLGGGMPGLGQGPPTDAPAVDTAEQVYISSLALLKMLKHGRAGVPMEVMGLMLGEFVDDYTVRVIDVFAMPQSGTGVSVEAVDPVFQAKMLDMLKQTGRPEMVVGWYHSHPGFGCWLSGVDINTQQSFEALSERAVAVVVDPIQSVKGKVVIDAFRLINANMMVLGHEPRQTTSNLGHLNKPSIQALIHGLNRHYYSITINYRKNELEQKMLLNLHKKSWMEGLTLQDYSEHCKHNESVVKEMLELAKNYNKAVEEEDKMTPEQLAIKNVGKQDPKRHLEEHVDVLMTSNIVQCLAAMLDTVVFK

[12] = molecular target: Dual specificity protein phosphatase 3 (Homo sapiens, UniProt P51452); assay: VHR phosphatase inhibition, dose response, selectivity assay for STEP inhibitor project, biochemical (AID 602374); type: functional; details: read-out: IC50_Mean
Dual specificity protein phosphatase 3, sequence (P51452 whole entry): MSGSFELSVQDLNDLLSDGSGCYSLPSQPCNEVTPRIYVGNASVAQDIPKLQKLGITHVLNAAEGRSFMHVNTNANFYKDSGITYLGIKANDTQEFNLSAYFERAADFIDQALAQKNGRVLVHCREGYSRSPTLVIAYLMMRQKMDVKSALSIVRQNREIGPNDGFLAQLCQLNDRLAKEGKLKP

[13] = molecular target: T2, Tyrosine-protein phosphatase non-receptor type 11 (Homo sapiens, UniProt Q06124); assay: SHP2 phosphatase inhibition, dose response, selectivity assay for STEP inhibitor project, biochemical (AID 602367); type: functional; details: read-out: IC50_Mean
T2 sequence (Q06124 whole entry): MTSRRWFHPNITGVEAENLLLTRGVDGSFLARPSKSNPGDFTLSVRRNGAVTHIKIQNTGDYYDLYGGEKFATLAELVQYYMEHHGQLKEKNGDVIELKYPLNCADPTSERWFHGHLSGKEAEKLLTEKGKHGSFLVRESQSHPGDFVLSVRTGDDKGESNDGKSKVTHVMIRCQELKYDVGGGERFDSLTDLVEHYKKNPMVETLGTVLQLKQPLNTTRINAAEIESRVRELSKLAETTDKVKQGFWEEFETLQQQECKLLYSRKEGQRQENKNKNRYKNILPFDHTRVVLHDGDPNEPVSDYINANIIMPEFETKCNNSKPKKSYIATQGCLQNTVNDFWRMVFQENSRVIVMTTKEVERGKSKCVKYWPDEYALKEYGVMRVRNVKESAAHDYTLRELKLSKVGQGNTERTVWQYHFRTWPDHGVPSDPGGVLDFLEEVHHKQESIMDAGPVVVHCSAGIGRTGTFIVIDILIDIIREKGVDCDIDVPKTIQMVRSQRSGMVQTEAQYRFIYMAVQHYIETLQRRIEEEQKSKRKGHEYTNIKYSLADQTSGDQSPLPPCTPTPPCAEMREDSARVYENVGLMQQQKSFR

[14] = molecular target: T3, Tyrosine-protein phosphatase non-receptor type 5 (Homo sapiens, UniProt P54829); assay: STEP phosphatase inhibitors, confirmation, biochemical, fluorescence intensity, uHTS hits (AID 602372); type: functional; details: read-out: IC50_Mean
T3 sequence (P54829 whole entry): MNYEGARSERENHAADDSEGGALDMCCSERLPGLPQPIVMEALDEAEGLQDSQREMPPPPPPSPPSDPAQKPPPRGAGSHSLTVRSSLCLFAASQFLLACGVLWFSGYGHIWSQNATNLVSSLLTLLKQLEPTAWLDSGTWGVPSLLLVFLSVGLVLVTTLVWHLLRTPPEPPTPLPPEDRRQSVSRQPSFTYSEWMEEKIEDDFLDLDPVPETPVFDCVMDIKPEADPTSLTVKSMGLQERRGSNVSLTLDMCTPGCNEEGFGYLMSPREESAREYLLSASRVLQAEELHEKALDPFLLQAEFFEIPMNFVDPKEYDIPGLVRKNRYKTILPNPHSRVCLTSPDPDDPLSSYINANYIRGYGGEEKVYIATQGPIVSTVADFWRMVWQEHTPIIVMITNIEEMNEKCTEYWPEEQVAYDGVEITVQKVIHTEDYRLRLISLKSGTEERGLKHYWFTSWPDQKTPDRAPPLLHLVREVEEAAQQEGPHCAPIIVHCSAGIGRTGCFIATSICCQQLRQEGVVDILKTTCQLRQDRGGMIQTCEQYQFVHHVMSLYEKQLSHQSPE

[15] = inhibitors of firefly luciferase expression or activity, dose response, H4 neuroglioma cells, luminescence (AID 1990); type: functional, cell-based
[16] = Luminescence Cell-Based Dose Response HTS to Identify Inhibitors of 5'UTR Stem-Loop Driven Prion Protein mRNA Translation in H4 Neuroglioblastoma Cells. [Related pubchem assays: 1827 (Project Summary), 1813 (Primary HTS)]; type: functional
[17] = molecular target: T4, Ubiquitin-conjugating enzyme E2 N (Homo sapiens, UniProt P61088); type: functional;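 further: Dose-response confirmation in a TR-FRET assay detecting UBC13-driven polyubiquitin chain formation, inhibition measured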
T4 sequence (P61088 whole entry): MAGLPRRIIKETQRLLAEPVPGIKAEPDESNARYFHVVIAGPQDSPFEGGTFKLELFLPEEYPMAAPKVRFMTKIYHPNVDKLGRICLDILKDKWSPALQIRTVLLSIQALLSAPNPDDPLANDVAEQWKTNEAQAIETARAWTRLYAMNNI

[18] = inhibitors of SNCA 5'UTR-driven reporter translation, confirmation, H4 neuroglioma cells, luminescence (AID 1988); type: functional, cell-based
[19] = molecular target: T5, DNA repair and recombination protein RAD54-like (Homo sapiens, UniProt Q92698); assay: inhibitors of human RAD54 branch migration, confirmation, biochemical, fluorescence, cherry-picked samples, dose series (AID 651657); type: functional
T5 sequence (Q92698 whole entry): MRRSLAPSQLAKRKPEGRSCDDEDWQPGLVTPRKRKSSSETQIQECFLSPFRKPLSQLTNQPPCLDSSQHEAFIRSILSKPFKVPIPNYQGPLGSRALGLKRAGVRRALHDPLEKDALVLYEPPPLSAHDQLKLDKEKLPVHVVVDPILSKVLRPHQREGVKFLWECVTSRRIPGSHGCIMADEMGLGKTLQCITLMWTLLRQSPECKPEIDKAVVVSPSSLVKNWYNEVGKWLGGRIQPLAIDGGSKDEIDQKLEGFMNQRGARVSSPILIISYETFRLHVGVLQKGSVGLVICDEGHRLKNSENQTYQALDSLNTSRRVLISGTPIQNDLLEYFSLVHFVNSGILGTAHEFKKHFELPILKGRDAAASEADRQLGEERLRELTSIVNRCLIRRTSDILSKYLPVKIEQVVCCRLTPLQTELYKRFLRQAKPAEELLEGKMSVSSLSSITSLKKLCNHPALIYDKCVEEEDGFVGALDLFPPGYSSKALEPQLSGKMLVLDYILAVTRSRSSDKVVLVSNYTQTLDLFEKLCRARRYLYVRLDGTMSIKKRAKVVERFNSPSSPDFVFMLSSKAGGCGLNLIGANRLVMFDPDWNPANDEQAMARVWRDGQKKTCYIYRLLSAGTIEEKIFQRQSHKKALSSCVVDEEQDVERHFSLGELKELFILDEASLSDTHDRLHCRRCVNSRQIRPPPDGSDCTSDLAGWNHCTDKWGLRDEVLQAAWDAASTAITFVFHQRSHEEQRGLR

[20] = NIH-3T3 fibroblast cytotoxicity, dose response, cytotoxicity control, cell-based, fluorescence, Alamar Blue, secondary assay (AID 2327); type: functional;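 further: NIH-3T3 mouse fibroblasts cultured with fluconazole at 8 µg/mL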
[21] = molecular target: Heat shock protein HSP 90-alpha (Homo sapiens, UniProt P07900); type: functional, organism-based
[22] = C. albicans growth with fluconazole, confirmation, fluorescence, retest (AID 2467); type: functional, cell-based
[23] = microbe, parasite or virus in culture; type: functional; details: Mycobacterium tuberculosis
Streptococcus = assay: Group A Streptococcus viability loss, dose response, counter-screen for streptokinase expression inhibitor project, luminescence, BacTiterGlo (AID 1915); type: functional, organism-based;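 further: potency for reduction of bacterial viability or growth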
[24] = tested on: Streptococcus sp. 'group A'; assay: growth inhibition of control SK(-) GAS strain, dose response, counter-screen for streptokinase expression inhibitor project, luminescence, kanamycin, BacTiterGlo, confirmation (AID 1900); type: functional, organism-based
INS1 = assay: beta cell apoptosis inhibitors, cytokine rescue, dose response, luminescence, retest (AID 449756); type: functional, cell-based; details: Rattus norvegicus;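 further: cell death triggered by IL-1 beta plus TNF-alpha plus IFN-gamma mixture; protective hits raise ATP signal compared with cytokine alone wells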
[25] = molecular target: T6, Sentrin-specific protease 8 (Homo sapiens, UniProt Q96LD8); type: functional
T6 sequence (Q96LD8 whole entry): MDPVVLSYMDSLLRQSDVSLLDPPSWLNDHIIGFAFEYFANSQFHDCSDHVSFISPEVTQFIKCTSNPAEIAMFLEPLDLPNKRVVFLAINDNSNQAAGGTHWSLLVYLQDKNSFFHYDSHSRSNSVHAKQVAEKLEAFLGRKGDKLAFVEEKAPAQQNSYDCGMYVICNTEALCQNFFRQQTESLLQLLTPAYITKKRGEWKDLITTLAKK

[26] = molecular target: Glucose-6-phosphate 1-dehydrogenase (Homo sapiens, UniProt P11413); assay: human G6PD enzyme inhibitors, dose response, selectivity assay for P. falciparum G6PD inhibitor project, biochemical, fluorescence (AID 504792); type: functional
Glucose-6-phosphate 1-dehydrogenase, sequence (P11413 whole entry): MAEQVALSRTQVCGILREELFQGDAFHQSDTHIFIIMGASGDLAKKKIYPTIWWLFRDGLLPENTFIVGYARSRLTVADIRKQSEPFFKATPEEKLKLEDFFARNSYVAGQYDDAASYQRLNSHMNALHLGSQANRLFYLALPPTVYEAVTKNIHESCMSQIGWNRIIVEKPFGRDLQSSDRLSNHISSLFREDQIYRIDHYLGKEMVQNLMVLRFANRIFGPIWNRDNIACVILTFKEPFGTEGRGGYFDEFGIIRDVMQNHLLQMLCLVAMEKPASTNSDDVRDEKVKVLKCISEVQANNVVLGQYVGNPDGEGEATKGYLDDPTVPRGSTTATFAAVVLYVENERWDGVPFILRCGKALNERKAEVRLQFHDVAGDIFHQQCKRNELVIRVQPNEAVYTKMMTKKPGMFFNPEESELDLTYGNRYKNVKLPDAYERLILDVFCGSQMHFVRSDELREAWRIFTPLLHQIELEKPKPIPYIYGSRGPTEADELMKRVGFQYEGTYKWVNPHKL

[27] = molecular target: T6, Sentrin-specific protease 8; type: functional; remark: listed apart in the source

CC(C)[C@H](NC(=O)c1ccccc1Cl)C(=O)Nc1nc(-c2ccccn2)cs1
EC50 [1]: 2.23 µM (active)
EC50 (cells [2]): > 350 µM (not active)
AC50 [3]: 73.8 µM (active)
IC50 (H9c2): 8.83 µM (active)
EC50 (cells [4]): 24 µM (active)
EC50 [5]: 11.7 µM (active)

CC(C)OC(=O)c1c2c(n3ccccc13)C(=O)c1ccccc1C2=O
EC50 [6]: > 99 µM (inactive)
IC50 (cells [7]): 0.44 µM (active)
EC50 [8]: > 99 µM (inactive)
AC50 [9]: 2.17 µM (active)

CCOc1cc(/C=C2\SC(=S)N(NC(=O)c3cccnc3)C2=O)ccc1O
IC50 [10]: > 100 µM (inactive)
IC50 (Prothrombin): 35.7 µM (active)
IC50 [11]: 25.8 µM (active)

O=C(C1=C(O)C(=O)N(CCCO)C1c1ccc(Br)cc1)c1ccc(Br)cc1 (centres undefined)
IC50 [12]: 73.4 µM (inactive)
IC50 [13]: 58.9 µM (inactive)
IC50 [14]: 36.2 µM (inactive)

COC(=O)c1c(NC(=O)c2nc3ccccc3s2)sc2c1CC(C)(C)NC2(C)C
EC50 [6]: > 99 µM (inactive)
EC50 [15]: 8.05 µM (active)
EC50 [8]: > 99 µM (inactive)
EC50 [16]: 8.33 µM (active)
IC50 [17]: > 20 µM (inactive)
EC50 [18]: 8.54 µM (active)

CCOC(=O)c1c(NC(=O)c2ccc(S(=O)(=O)N3CCOCC3)cc2)sc2c1CCN(C(C)C)C2
AC50 [19]: 8.89 µM (active)

O=C(/C=C/c1cc(Br)ccc1O)c1ccco1
EC50 [20]: > 150 µM (inconclusive)
AC50 [21]: 7.73 µM (active)
EC50 [22]: 2.26 µM (active)
CC50 [23]: 7.21 µM (active)

O=C(N/N=C/c1cc([N+](=O)[O-])ccc1O)c1cc(-c2ccccc2)nc2ccccc12
IC50 [10]: > 100 µM (inactive)
EC50 (Streptococcus): 2.65 µM (active)
EC50 [24]: 1.83 µM (active)
AC50 (INS1): 1.24 µM (active)
IC50 (Prothrombin): 10.7 µM (active)
IC50 [11]: 14.8 µM (active)

CCCCN(CC)CCCN=C(S)Nc1ccc2nc(N3CCN(CC)CC3)cc(C)c2c1
AC50 [19]: 25.7 µM (active)

OCCN1CCN(C(=S)c2ccc(Cl)c(Cl)c2)CC1
IC50 [25]: 18.4 µM (active)
AC50 [3]: 132 µM (active)
IC50 [26]: > 80 µM (inactive)
IC50 [12]: 0.339 µM (active)
IC50 [13]: 1.99 µM (active)
IC50 [14]: 8.95 µM (active)
IC50 [27]: 10.8 µM (active)

Cc1cc(C)c2c(N)c(C(=O)N/N=C/c3cccs3)sc2n1
IC50 [10]: > 100 µM (inactive)
IC50 (Prothrombin): 35.8 µM (active)
IC50 [11]: 8.64 µM (active)
